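Interpolation was linear, between the two tested concentrations surrounding the appropriate level; five concentrations were tested over 48 hours in 96-well plates. GI50: concentration for 50% inhibition of growth.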 Active and inactive are the calls of the source. No stated cut-off is given here; in the data, active = GI50 up to about 1.1 µM and inactive = higher.
Experiments:
Experiment in all cases: growth of human tumour cells (NCI), 48 h
A549 = system: A549
ACHN = system: ACHN
COLO 205 = system: COLO 205
HCT-116 = system: HCT-116
HOP-92 = system: HOP-92
IGROV-1 = system: IGROV-1
K562 = system: K562
KM12 = system: KM12
NCI-H226 = system: NCI-H226
NCI-H23 = system: NCI-H23
NCI-H460 = system: NCI-H460
NCI-H522 = system: NCI-H522
NCI/ADR-RES = system: NCI/ADR-RES
SF-295 = system: SF-295
SK-MEL-5 = system: SK-MEL-5
SW-620 = system: SW-620
T47D = system: T47D
U-251 = system: U-251
UACC-257 = system: UACC-257

Row | SMILES | GI50 (A549) | GI50 (ACHN) | GI50 (COLO 205) | GI50 (HCT-116) | GI50 (HOP-92) | GI50 (IGROV-1) | GI50 (K562) | GI50 (KM12) | GI50 (NCI-H226) | GI50 (NCI-H23) | GI50 (NCI-H460) | GI50 (NCI-H522) | GI50 (NCI/ADR-RES) | GI50 (SF-295) | GI50 (SK-MEL-5) | GI50 (SW-620) | GI50 (T47D) | GI50 (U-251) | GI50 (UACC-257)
1 | C=CCOc1ccccc1/N=N/C(C#N)=N\Nc1ccccc1OCC=C | > 100 µM (inactive) | > 100 µM (inactive) | > 100 µM (inactive) | > 100 µM (inactive) | 62.1 µM (inactive) | > 100 µM (inactive) | > 100 µM (inactive) | > 100 µM (inactive) | > 100 µM (inactive) | > 100 µM (inactive) | > 100 µM (inactive) | > 100 µM (inactive) | > 100 µM (inactive) | > 100 µM (inactive) | > 100 µM (inactive) | > 100 µM (inactive) | > 100 µM (inactive) | > 100 µM (inactive) | > 100 µM (inactive)
2 | C=C(CO)[C@H]1CC/C(C)=C/CC/C(C)=C/C/C=C(\C)[C@H](O)C1 | 42 µM (inactive) | 26.3 µM (inactive) | 22.3 µM (inactive) | 26.9 µM (inactive) | 19.8 µM (inactive) | 17.8 µM (inactive) | 37.8 µM (inactive) | 15.9 µM (inactive) | 30.5 µM (inactive) | 29.2 µM (inactive) | 22.1 µM (inactive) | 16.9 µM (inactive) | 27.3 µM (inactive) | 34.8 µM (inactive) | 18.9 µM (inactive) | 20.2 µM (inactive) | 48 µM (inactive) | 19.1 µM (inactive) | 19.7 µM (inactive)
3 | CCCCCCN1C(=O)CC(=O)N(CCCCCC)S1(=O)=O | 35.2 µM (inactive) | – | 17.9 µM (inactive) | 29.6 µM (inactive) | 11.6 µM (inactive) | 12.4 µM (inactive) | 40.6 µM (inactive) | 28.1 µM (inactive) | 26.6 µM (inactive) | 25.7 µM (inactive) | 31.5 µM (inactive) | 12.9 µM (inactive) | 21.7 µM (inactive) | 18.1 µM (inactive) | 19.8 µM (inactive) | 19.1 µM (inactive) | 64.3 µM (inactive) | 17.6 µM (inactive) | 38.4 µM (inactive)
4 | O=C(O)CCC(NC(=O)c1ccc(OCc2nc3cc(C(F)(F)F)ccc3nc2-c2ccccc2)cc1)C(=O)O (centres undefined) | > 100 µM (inactive) | > 100 µM (inactive) | > 100 µM (inactive) | > 100 µM (inactive) | > 100 µM (inactive) | > 100 µM (inactive) | > 100 µM (inactive) | > 100 µM (inactive) | > 100 µM (inactive) | > 100 µM (inactive) | > 100 µM (inactive) | > 100 µM (inactive) | > 100 µM (inactive) | > 100 µM (inactive) | – | > 100 µM (inactive) | > 100 µM (inactive) | > 100 µM (inactive) | > 100 µM (inactive)
5 | O=C(O)C1CCc2ccc3ccccc3c2C1c1cccc2ccccc12 (centres undefined) | 16.5 µM (inactive) | 29.6 µM (inactive) | 25.9 µM (inactive) | 15.6 µM (inactive) | 19.1 µM (inactive) | 22.9 µM (inactive) | 32.3 µM (inactive) | 21.9 µM (inactive) | 24.7 µM (inactive) | – | 20 µM (inactive) | 21.4 µM (inactive) | 23.3 µM (inactive) | 23.9 µM (inactive) | 16.5 µM (inactive) | 28.2 µM (inactive) | 43.9 µM (inactive) | 17.9 µM (inactive) | 25.9 µM (inactive)
6 | CCCCCCCCCC[C@H](O)[C@H]1CC[C@@H]([C@@H](O)CC[C@H](O)[C@@H]2CCC(CCCCCCC[C@@H](O)CC3=C[C@H](C)OC3=O)O2)O1 (some centres undefined) | 1.77 µM (inactive) | 1.21 µM (inactive) | 2.37 µM (inactive) | 1.16 µM (inactive) | 1.02 µM (active) | 1.78 µM (inactive) | 1.37 µM (inactive) | 1.53 µM (inactive) | 1.57 µM (inactive) | 1.31 µM (inactive) | 1.86 µM (inactive) | 3.7 µM (inactive) | 1.34 µM (inactive) | 1.73 µM (inactive) | 1.5 µM (inactive) | 1.69 µM (inactive) | 3.08 µM (inactive) | 1.97 µM (inactive) | 0.115 µM (active)
7 | CC(C)(C)OC(=O)C1CCC/C1=N/Nc1ccc([N+](=O)[O-])cc1[N+](=O)[O-] (centres undefined) | 31.9 µM (inactive) | 45.3 µM (inactive) | 27 µM (inactive) | 21.4 µM (inactive) | 47.1 µM (inactive) | 25.5 µM (inactive) | 15.7 µM (inactive) | 54.7 µM (inactive) | 21.3 µM (inactive) | 18 µM (inactive) | 37.9 µM (inactive) | 18.8 µM (inactive) | 26.1 µM (inactive) | 25 µM (inactive) | 13.9 µM (inactive) | 27.9 µM (inactive) | 16.3 µM (inactive) | 22 µM (inactive) | –
8 | COc1cc(S(=O)(=O)Nc2ccc(-c3csc(N)n3)cc2)ccc1Cl | 18.4 µM (inactive) | 17.4 µM (inactive) | 17 µM (inactive) | 16.2 µM (inactive) | 22.6 µM (inactive) | – | 18.5 µM (inactive) | – | 26.4 µM (inactive) | 21.2 µM (inactive) | – | 17.9 µM (inactive) | 33.9 µM (inactive) | – | 16.6 µM (inactive) | 24.3 µM (inactive) | 7.87 µM (inactive) | – | –
9 | CCOC(=O)C(NC(=O)OCc1ccccc1)C(=O)O (centres undefined) | > 100 µM (inactive) | > 100 µM (inactive) | > 100 µM (inactive) | > 100 µM (inactive) | > 100 µM (inactive) | > 100 µM (inactive) | > 100 µM (inactive) | > 100 µM (inactive) | > 100 µM (inactive) | > 100 µM (inactive) | > 100 µM (inactive) | > 100 µM (inactive) | > 100 µM (inactive) | > 100 µM (inactive) | > 100 µM (inactive) | > 100 µM (inactive) | > 100 µM (inactive) | > 100 µM (inactive) | > 100 µM (inactive)
10 | O=C1OCC2(CO1)CC1C=CC2C1 (centres undefined) | > 100 µM (inactive) | > 100 µM (inactive) | > 100 µM (inactive) | > 100 µM (inactive) | > 100 µM (inactive) | > 100 µM (inactive) | > 100 µM (inactive) | > 100 µM (inactive) | > 100 µM (inactive) | > 100 µM (inactive) | > 100 µM (inactive) | > 100 µM (inactive) | > 100 µM (inactive) | > 100 µM (inactive) | > 100 µM (inactive) | > 100 µM (inactive) | > 100 µM (inactive) | > 100 µM (inactive) | > 100 µM (inactive)
11 | NC(=O)N/N=C(/CC1C(=O)Oc2ccccc21)c1ccccc1O (centres undefined) | > 100 µM (inactive) | 39.7 µM (inactive) | 98.2 µM (inactive) | 29.6 µM (inactive) | 29.8 µM (inactive) | 36.6 µM (inactive) | 30.8 µM (inactive) | 31.9 µM (inactive) | 24.4 µM (inactive) | 31.5 µM (inactive) | 39.4 µM (inactive) | > 100 µM (inactive) | 25.9 µM (inactive) | 42.5 µM (inactive) | 58.6 µM (inactive) | 45.7 µM (inactive) | 19.5 µM (inactive) | 30.1 µM (inactive) | 44.7 µM (inactive)
12 | Cc1cc(C)c(S(=O)(=O)N(CCCN)OCCON(CCCN)S(=O)(=O)c2c(C)cc(C)cc2C)c(C)c1 | 3.31 µM (inactive) | 23.7 µM (inactive) | 2.66 µM (inactive) | 2.24 µM (inactive) | 6.24 µM (inactive) | 1.97 µM (inactive) | 2.96 µM (inactive) | 2.17 µM (inactive) | 4.44 µM (inactive) | 2.59 µM (inactive) | 2.67 µM (inactive) | 6.53 µM (inactive) | 22.1 µM (inactive) | 20.2 µM (inactive) | 8.2 µM (inactive) | > 22.2 µM (inactive) | 4.92 µM (inactive) | – | 3.39 µM (inactive)
13 | CC12OC3(C(O)C1O)C(C(=O)O[C@H]3CO[Si](C)(C)C(C)(C)C)C2S(=O)(=O)c1ccccc1 (some centres undefined) | 45 µM (inactive) | 48.1 µM (inactive) | – | 61.5 µM (inactive) | 38.3 µM (inactive) | 21 µM (inactive) | 37.8 µM (inactive) | 33.3 µM (inactive) | 5.21 µM (inactive) | – | 44.7 µM (inactive) | 17.5 µM (inactive) | 11.9 µM (inactive) | 43.1 µM (inactive) | – | 81.5 µM (inactive) | 36.1 µM (inactive) | 86.3 µM (inactive) | 25.8 µM (inactive)
14 | CCNC1=C(NC(=O)c2ccc(F)cc2)C(=O)c2ccccc2C1=O | 70.8 µM (inactive) | > 100 µM (inactive) | 26.7 µM (inactive) | 30.3 µM (inactive) | > 100 µM (inactive) | 31.6 µM (inactive) | 65.8 µM (inactive) | 49.9 µM (inactive) | > 100 µM (inactive) | 34.6 µM (inactive) | 50.1 µM (inactive) | 21 µM (inactive) | 27.3 µM (inactive) | 52.6 µM (inactive) | 35 µM (inactive) | 32.2 µM (inactive) | 47.1 µM (inactive) | – | 15.8 µM (inactive)
15 | COC(=O)C(C(=O)C(=O)Nc1ccccc1C#N)c1nc2ccc([N+](=O)[O-])cc2nc1O (centres undefined) | > 100 µM (inactive) | > 100 µM (inactive) | > 100 µM (inactive) | > 100 µM (inactive) | > 100 µM (inactive) | 94.4 µM (inactive) | – | 37.8 µM (inactive) | > 100 µM (inactive) | > 100 µM (inactive) | > 100 µM (inactive) | 53.7 µM (inactive) | 92.5 µM (inactive) | > 100 µM (inactive) | > 100 µM (inactive) | > 100 µM (inactive) | > 100 µM (inactive) | > 100 µM (inactive) | > 100 µM (inactive)

Source: ChEMBL document CHEMBL1201862, “PubChem BioAssay data set” (2004)
